# Assay results as given in US20250134122A1, “PEDIATRIC NUTRITIONAL COMPOSITIONS AND METHODS FOR INFANTS DELIVERED BY C-SECTION” (Mead Johnson Nutrition Company, priority 2018, published 2025).
# Test system: mouse fecal microbiota
# Assay: Gut microbiota community structure (16S rRNA V4-V5 sequencing, β-diversity, PCoA) after 3 weeks on experimental diets
# Type: in vivo
# Conditions: adult male C57bl/6 mice, 3 weeks of feeding; versus Control-fed or SAL-fed mice; ADONIS p<0.05
# From the text: Adult male C57bl/6 strains of Mus musculus (Charles Rivers Laboratories, Wilmington, MA) between 6-8 weeks of age were used in the study. After being received from the vendor, mice were placed on one of three experimental diets. Animals were given ad libitum access to water, and maintained on the experimental diets for 3 weeks. Experimental diets were: (1) Control diet (AlN-93G mouse chow); (2) AlN-93G supplemented with galactooligosaccharides (GOS 21.2 g/kg)+polydextrose (PDX 6.6 g/kg)+sialyllactose (SAL 2 g/kg); (3) AlN-93G supplemented with SAL.
# Colon contents were removed via direct excision for metabolomic analysis, and the colon tissue was briefly washed in a PBS bath so as to not disturb the mucous layer. DNA was extracted from the medial section of the colon (˜10 mg) using a Qiagen DNA Mini Kit, following manufacturer's instructions with slight modifications. Briefly, tissues were incubated for 45 min at 37° C. in lysozyme buffer (20 mg/ml lysozyme, 20 mM TrisHCL, 2 mM EDTA, 1.2% Triton-x, pH 8.0), then bead-beat for 150 sec with 0.7 mm zirconia beads. Samples were incubated at 56° C. for 2 hr with Buffer ATL and Proteinase K, then incubated at 56° C. for 30 min and 95° C. for 10 min upon addition of Buffer AL. […] DNA was quantified with the Qubit 2.0 Fluorometer (Life Technologies, Carlsbad, CA) using the dsDNA Broad Range Assay Kit. […]
substance,measurement,value
sialyllactose [SAL],"mouse fecal microbiota community structure (β-diversity; Unweighted UniFrac), PCoA clustering",not achieved
